Consider eight compounds from paper PMC11200976, “Pitavastatin Calcium Confers Fungicidal Properties to Fluconazole by Inhibiting Ubiquinone Biosynthesis and Generating Reactive Oxygen Species” (Antioxidants, 2024).

For series [1], the system named is C. albicans. The series is described as follows: MIC assays (CLSI M27 broth microdilution). It counts as cell-based, Candida albicans. Conditions: Candida albicans. How it is done:
The MIC assays for C. albicans were conducted following the broth microdilution protocol outlined by the Clinical and Laboratory Standards Institute (CLSI) protocols (M27, 4th edition). In brief, FDA-approved drugs were diluted in 96-well plates at two-fold the final concentration, with 4 μg/mL FLC. This dilution was combined with the cell suspension with a concentration of 1 × 10^3 cells/mL. The plates were incubated at a temperature of 30 °C for 48 h without agitation.

Series [2] relates to C. albicans. The series is described as follows: Determination of MFC. The note with it: for MFC: Candida albicans. The class given is cell-based, Candida albicans. How it is done: The determination of MFC followed the previously described method. In brief, a tested drug at a concentration two times higher than the final concentration was diluted in a two-fold serial dilution manner across ten columns of the plate, with each well containing 100 μL of the drug. Subsequently, 100 μL of C. albicans cultures (1 × 10^4 cells/mL) were transferred into wells with and without any drugs as the control. Following incubation at 30 °C for 48 h, a 200 μL aliquot per well was removed and evenly spread on SDA plates, which were then incubated at 30 °C for 48 h. The MFC value was determined as the lowest drug concentration at which 99.9% of fungal colonies were eradicated compared to the control group.

The subject of series [3] is Candida guilliermondii clinical isolates. The series can be described thus: Supra-MIC growth (SMG) of FLC in clinical isolates. The note with it: n = 7 isolates. The class given is cell-based.
For series [4], the system named is Candida glabrata clinical isolates. The series is described as follows: Supra-MIC growth (SMG) of FLC in clinical isolates. The class given is cell-based. The note with it: n = 4 isolates.
Series [5] has as its system C. albicans clinical isolates. The series is described as follows: Supra-MIC growth (SMG) of FLC in clinical isolates. The class given is cell-based, Candida albicans. Conditions: n = 7 isolates.
For series [6], the system named is C. albicans. The series can be described thus: Murine invasive C. albicans infections (C57BL/6 mice). It counts as in vivo, Candida albicans. How it is done:
. Before commencing drug therapy, the mice were inoculated with 200 μL of PBS containing 2 × 10^5 C. albicans cells via the lateral tail vein. […]. The mice were weighed, and their weights were recorded every three days while their survival was monitored daily for 30 days. Two-tailed unpaired t-tests were employed to assess the weight changes. Kaplan–Meier analyses were employed to assess the survival probabilities, while log-rank testing was utilized to determine the statistical significance of the survival curves. In the case of fungal burden analyses, the mice were closely monitored twice daily for any indications of infection and were euthanized humanely upon reaching the predetermined endpoints. Subsequently, each mouse’s spleen, liver, and kidneys were harvested and homogenized in sterile PBS after sacrifice, followed by streaking onto SDA agar plates. Following a 48 h incubation period, the colonies were quantified, and colony-forming units (CFUs) were calculated. For histopathological analysis, kidney tissues from mice infected for 6 or 10 days were procured and fixed in buffered formalin. Subsequently, the tissues were embedded in paraffin, sectioned into 3–4 μm slices, and subjected to PAS staining using established protocols. All experimental procedures involving animals were approved by the Tongji University Animal Care Committee (No.: TJAA00322101).

The test system of series [7] is C. albicans SC5314, SN152, cmp1-aid∆/cmp1-aid∆, and PADH1-UPC2 strains. The series is described as follows: FLC disk diffusion assays (25 μg FLC disk, 5 μM adjuvant). The class given is cell-based, Candida albicans. The note with it: for effect on FLC tolerance in FLC disk diffusion, all four strains: SC5314, SN152, cmp1-aid∆/cmp1-aid∆. On the procedure:
Yeast cells were cultured overnight at a temperature of 30 °C, and the resulting cell suspension was diluted to a concentration of 1 × 10^7 cells/mL in phosphate-buffered saline (PBS). At a concentration of 5 μM, the drugs were individually added to YPD plates for disk assays using a 25 μg FLC disk (6 mm, Liofilchem, Roseto degli Abruzzi, Italy). The plates were then incubated at 30 °C for 48 h. Subsequently, the disk was transferred to a drug-free YPD plate, which was incubated at 30 °C for 24 h and photographed.

Series [8] in a line: Acute toxicity, Up-and-Down procedure (OECD 425), intraperitoneal. It counts as in vivo. Conditions: C57BL/6, mouse, in vivo, ip, mice. How it is done:
(§1) Following a previously described methodology, the intraperitoneal route was employed in adult mice. In brief, the primary test involved a sequential administration of doses at intervals of at least 48 h, with one mouse being dosed at a time. Initially, a dose below LD50 was administered intraperitoneally to a mouse. If the mouse survived, the subsequent mouse would receive 1.3 times the initial dose. Conversely, if the mouse died, the subsequent mouse would receive a dose decreased by 1.3 times the initial dose. Each mouse was monitored for 48 h before determining the subsequent mouse’s dosage and administration. The experiment was terminated upon five “survive or die” reversals within a consecutive set of six animals tested. Subsequently, the LD50 and its corresponding confidence interval were computed based on the conditions observed in all mice after the experiment.

Series [9] relates to C. albicans. The series is described as follows: Broth microdilution assay of synergistic lethality with 4 μg/mL FLC (recovery on drug-free YPD). It counts as cell-based, Candida albicans. Conditions: concentration of the compound that is synergistically lethal with 4 μg/mL FLC; C. albicans; recovery on drug-free YPD.
Series [10] has as its system C. albicans. The series is described as follows: Dose–matrix titration assays (synergy, with YPD recovery plates). The class given is cell-based, Candida albicans. How it is done: The synergistic effects of drugs were conducted following the same procedure as the MIC assays. Specifically, 50 μL of drug A was distributed through two-fold serial dilution across seven plate columns. Subsequently, 50 μL of drug B was distributed in a two-fold serial dilution manner along seven rows of the plate. Furthermore, 100 μL of C. albicans cultures, adjusted to a density of 1 × 10^3 cells/mL, was dispensed into wells containing drugs and one control well devoid of any drugs. Before the 48 h OD600 readings, the plates were subjected to meticulous agitation to ensure the deposition of a representative 2 μL aliquot from each well onto newly prepared YPD recovery plates, thereby facilitating the evaluation of cellular recuperation following drug treatments. The recovery plates were subsequently incubated at a temperature of 30 °C for a duration ranging from 24 to 48 h, after which they were photographed. The experimental procedures were conducted in triplicate to ensure reliability and reproducibility.

In another series the test system is mice. The series is described as follows: Acute toxicity, Up-and-Down procedure (OECD 425), intraperitoneal. The class given is in vivo. On the procedure: as §1

Where two headings read alike, the source gives them in different places.

Regarding `OC(Cn1cncn1)(Cn1cncn1)c1ccc(F)cc1F` [FLC, Fluconazole], the MIC in the series with C. albicans [1] (SEC14/sec14△, YPD + 0.5 μM PIT, read-out: MIC of FLC) was 1 µg/mL; in the series on C. albicans [1] (SEC14/sec14△, YPD + 1 μM PIT, read-out: MIC of FLC) it was 0.5 µg/mL; with C. albicans [1] (SEC14/sec14△, YPD, read-out: MIC of FLC) it was 1 µg/mL; in the series with C. albicans [1] (SN152, YPD, read-out: MIC of FLC), 1 µg/mL; in the series with C. albicans [1] (read-out: MIC of FLC, age3△/age3△, YPD + 0.5 μM PIT), 0.25 µg/mL; in the series on C. albicans [1] (read-out: MIC of FLC, age3△/age3△, YPD + 1 μM PIT), 0.125 µg/mL. The MFC in the series with C. albicans [2] (absence of PIT) was greater than 64 µg/mL; with C. albicans [2] (in the presence of PIT (1 μM)), 2 µg/mL. Further, the “ratio of MFC to MIC of FLC” value in the series with C. albicans [2] (in the presence of 1 μM PIT) was determined as 4. The “SMG value of FLC” value in [3] (FLC alone) worked out at 0.0667; in [3] (in combination with PIT, p = 0.0362), 0.0166; in series [4] (FLC alone) it was 0.3169; in [4] (in combination with PIT, p = 0.0442), 0.0031; in series [5] (FLC alone) it was 0.1203; in series [5] (in combination with PIT, p = 0.002) it was 0. In addition, in the series with C. albicans [6] (after 1 mg/kg FLC ip for 3 days, 6 or 10 days after infection), the “kidney fungal burden in cmp1-aidΔ/cmp1-aidΔ infected group compared to cmp1Δ/cmp1Δ infected group” value is listed as “notably greater”. In the series with C. albicans [6] (clinical isolate 283, FLC 4 mg/kg, PIT 3 mg/kg, 30-day observation period), this compound returned a mortality rate of 50%. Besides, the “average weight loss on the 15th day of infection” value in the series with C. albicans [6] (clinical isolate 283, FLC 4 mg/kg, PIT 3 mg/kg, ten mice per group) is reported as 1.16 ± 0.63 g.

For the compound `COC1=C2C[C@@H](C)C[C@H](OC)[C@H](O)[C@@H](C)/C=C(\C)[C@H](OC(N)=O)[C@@H](OC)/C=C\C=C(/C)C(=O)NC(=CC1=O)C2=O` [GdA, geldanamycin], the “effect on FLC tolerance in FLC disk diffusion, all four strains” value (“effect on FLC tolerance … all four strains” for short) in series [7] (PADH1-UPC2) is on record as “effectively eradicated the zones of FLC inhibition”. Moreover, the LD50 at 48 h in series [8] was found to be 19 mg/kg.

As for `C[C@@H]1CC[C@@]2(OC1)O[C@H]1C[C@H]3[C@@H]4CC=C5C[C@@H](O[C@@H]6O[C@H](CO)[C@@H](O[C@@H]7O[C@@H](C)[C@H](O)[C@@H](O)[C@H]7O)[C@H](O)[C@H]6O[C@@H]6O[C@@H](C)[C@H](O)[C@@H](O)[C@H]6O)CC[C@]5(C)[C@H]4CC[C@]3(C)[C@H]1[C@@H]2C` [dioscin], in the series with C. albicans [9], the Synergistic lethal concentrations came out at 6.25 µM. In addition, the “concentration that renders FLC fungicidal (no recovery on YPD solid medium)” value in the series on C. albicans [10] (FLC ≤4 μg/mL, YPD, 30 °C, 48 h) is no more than 3.125 µM. Moreover, in series [7] (Figure S3), the “synergistic lethal effects with FLC compared to GdA and CsA (disk diffusion)” value is “weaker synergistic lethal effects”. This compound came in with an LD50 at 48 h in [8] of 32 mg/kg.

As for `CC[C@@H]1/C=C(\C)C[C@H](C)C[C@H](OC)[C@H]2O[C@@](O)(C(=O)C(=O)N3CCCC[C@H]3C(=O)O[C@H](/C(C)=C/[C@@H]3CC[C@H](Cl)[C@H](OC)C3)[C@H](C)[C@@H](O)CC1=O)[C@H](C)C[C@@H]2OC` [pimecrolimus], in the series on C. albicans [9], the Synergistic lethal concentrations stood at 0.1953 µM. Also, the “concentration that renders FLC fungicidal (no recovery on YPD solid medium)” value in the series with C. albicans [10] (FLC ≤4 μg/mL, YPD, 30 °C, 48 h) is no more than 3.125 µM. Besides, the “effect on FLC tolerance … all four strains” value in [7] (PADH1-UPC2) was “made FLC fungicidal”. Moreover, the LD50 at 48 h in [8] came out at 42 mg/kg.

As to `Oc1cc(Cl)ccc1Oc1ccc(Cl)cc1Cl` [triclosan], the Synergistic lethal concentrations with C. albicans [9] was found to be 0.3906 µM. For the same compound, in the series on C. albicans [10] (FLC ≤4 μg/mL, YPD, 30 °C, 48 h), the “concentration that renders FLC fungicidal (no recovery on YPD solid medium)” value was no more than 3.125 µM. Further, in series [7] (PADH1-UPC2), the “effect on FLC tolerance … all four strains” value is on record as “made FLC fungicidal”. The LD50 at 48 h in series [8] was determined as 62.6 mg/kg.

As for `Cc1ccc(Sc2ccccc2N2CCNCC2)c(C)c1` [vortioxetine], the Synergistic lethal concentrations with C. albicans [9] is 6.25 µM. In addition, the “concentration that renders FLC fungicidal (no recovery on YPD solid medium)” value with C. albicans [10] (FLC ≤4 μg/mL, YPD, 30 °C, 48 h) was no more than 3.125 µM. Besides, the “effect on FLC tolerance … all four strains” value in series [7] (PADH1-UPC2) is on record as “made FLC fungicidal”. In series [8], this compound displayed an LD50 at 48 h of 48.3 mg/kg.

For bleomycin sulfate, in the series with C. albicans [10], the “concentration that renders FLC fungicidal (no recovery on YPD solid medium)” value is no more than 3.125 µM. Also, the “effect on FLC tolerance in FLC disk diffusion, cmp1-aid∆/cmp1-aid∆ strain” value in series [7] (cmp1-aid∆/cmp1-aid∆) is given as “failed to clear the zone of FLC inhibition”. In addition, the 50% lethal dose (LD50) in the series with mice was determined as 21.57 mg/kg.

In the case of polymyxin B sulfate, the Synergistic lethal concentrations with C. albicans [9] stood at 6.25 µM. The “concentration that renders FLC fungicidal (no recovery on YPD solid medium)” value in the series on C. albicans [10] (FLC ≤4 μg/mL, YPD, 30 °C, 48 h) is no more than 3.125 µM. Besides, the “effect on FLC tolerance in FLC disk diffusion, PADH1-UPC2 strain” value in [7] (PADH1-UPC2) is recorded as “unsuccessful in reducing FLC tolerance”. This compound had an LD50 with mice of 25 mg/kg.
